Some results are limits rather than exact numbers.

This assay has as its target T1, hAT2 (Homo sapiens, UniProt P50052).
T1 construct: expressed in transfected cells; host or cells: HEK-293
T1 sequence (P50052 1-363): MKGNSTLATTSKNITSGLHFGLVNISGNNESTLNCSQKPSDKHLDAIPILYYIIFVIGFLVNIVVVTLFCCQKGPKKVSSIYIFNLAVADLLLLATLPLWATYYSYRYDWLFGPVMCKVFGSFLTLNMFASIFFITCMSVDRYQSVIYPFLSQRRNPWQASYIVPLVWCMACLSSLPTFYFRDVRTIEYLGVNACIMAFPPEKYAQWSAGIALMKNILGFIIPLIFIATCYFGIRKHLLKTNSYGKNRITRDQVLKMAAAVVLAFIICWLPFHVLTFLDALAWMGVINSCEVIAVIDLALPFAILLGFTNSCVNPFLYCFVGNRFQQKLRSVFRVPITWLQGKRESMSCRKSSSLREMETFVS
Briefly: hAT2 receptor binding assay (SPA, [125I]-Sar1-Ile8-Angiotensin II). Conditions: membrane of HEK-293 cells overexpressing hAT2; 0.1 nM 125I ligand. Here is the method:
hAT2 Receptor Binding Assay
Protease inhibitor mixture, free of ethylenediaminetetraacetic acid-1 tablets (Roche #11873580001) (50 mL plus one piece)
Experimental Methods and Steps
The reference ligand PD123319 and the test compound were prepared into a 750 μM mother liquor by DMSO; each compound was prepared into a solution of 8 concentration gradients (up to a concentration of 750 μM, 3-fold dilution) and 10 μl of the solution was added to a master of a 384-well plate per well.
The SPA beads were prepared to a mother liquor of 25 mg/ml by the buffer;
The isotope [^125I]-Sar1-Ile8-Angiotensin II was prepared into a mother liquor of 50 μCi/ml by adding pure water.
The cell membrane overexpressing hAT2 in HEK-293 cells was prepared to 2.5 mg/ml by the buffer.
200 nl of compound was aspirated from the mother plate with ECHO to each well of the 384-well test plate. ZPE was added to an equal volume of DMSO. (The concentration of the test compound in the reaction was diluted by 250 times).
A 50 ml membrane solution containing 10 μg/μl of magnetic beads and 0.05 μg/μl of AT2 was prepared, placed on a shaker and uniformly mixed. (100 rpm, 30 min). The test plate finally contained an hAT2 membrane with 1.25 μg/well and magnetic beads with 250 μg/well.
A 3.2 ml membrane liquid mixture was added to the compound test plate by using a Multidrop Combi pipette, and 25 μl was added to each well.
A 0.2 nM solution was prepared with 50 μCi/ml of isotope [^125I]-Sar1-Ile8-Angiotensin II mother liquor by the buffer, and 0.2 nM of ^125I was added to the compound test plate with a Multidrop Combi pipette. A volume of 25 μl was added to each well. The final concentration of ^125I isotope is 0.1 nM.
The prepared test plate was placed on a shaker overnight at room temperature at 200 rpm.
The test plate was centrifuged with a centrifuge at 1200 rpm for 1 min.
The centrifuged test plate was read with Microbeta.
For the molecule `COc1ccc2c(c1OCc1ccccc1)C[C@@H](C(=O)O)N(C(=O)[C@@H](OC(C)(C)C)c1ccccc1)C2` [Compound 39], the IC50 (commonly the concentration that gives 50% inhibition) was found to be 18.5 nM.

Turning to `COc1ccc2c(c1OCc1ccccc1)C[C@@H](C(=O)O)N(C(=O)[C@@H](NC1CCCC1)c1ccccc1)C2` [Compound 40], the IC50 worked out at 9.1 nM. The molecule `COc1ccc2c(c1OCc1ccccc1)C[C@@H](C(=O)O)N(C(=O)[C@H](NC1CCCC1)c1ccccc1)C2` [Compound 41] yielded an IC50 of 216 nM.

With `COc1ccc2c(c1OCc1ccccc1)C[C@@H](C(=O)O)N(C(=O)[C@@H](NC(=O)C1CCCC1)c1ccccc1)C2` [Compound 42], the IC50 worked out at 161 nM. This IC50 and that of the molecule before are within 1.5-fold of each other.

With `COc1ccc2c(c1OCc1ccccc1)C[C@@H](C(=O)O)N(C(=O)[C@H](NC(=O)C1CCCC1)c1ccccc1)C2` [Compound 43], the IC50 is > 3000 nM. As for `COc1ccc2c(c1OCc1ccccc1)C[C@@H](C(=O)O)N(C(=O)[C@@H](OC1CCCCC1)c1ccccc1)C2` [Compound 44], the half-inhibitory concentration (IC50) is 8 nM. Next, `COc1ccc2c(c1OCc1ccccc1)C[C@@H](C(=O)O)N(C(=O)[C@H](c1ccccc1)N(C)C1CCCC1)C2` [Compound 45]: 487 nM; `COc1ccc2c(c1OCc1ccccc1)C[C@@H](C(=O)O)N(C(=O)C(Oc1ccccc1)c1ccccc1)C2` (some centres unmarked) [Compound 46]: 186 nM; `COc1ccc2c(c1OCc1ccccc1)C[C@@H](C(=O)O)N(C(=O)C(OC1CCCC1)c1ccccc1)C2` (some centres unmarked) [Compound 47]: 17 nM. Molecule `COc1ccc2c(c1OCc1ccccc1)C[C@@H](C(=O)O)N(C(=O)C(OC1CCC(O)CC1)c1ccccc1)C2` (some centres unmarked) [Compound 48] gave an IC50 of 21.4 nM. For `COc1ccc2c(c1OCc1ccccc1)C[C@@H](C(=O)O)N(C(=O)[C@H](OC1CC(F)(F)C1)c1ccccc1)C2` [Compound 52], the 50% inhibitory concentration (IC50) worked out at 126 nM. This IC50 lies about 5.9-fold higher than the previous one. As for `COc1ccc2c(c1OCc1ccccc1)C[C@@H](C(=O)O)N(C(=O)[C@@H](OC1CCCC1)c1ccc(F)cc1)C2` [Compound 53], the half-maximal inhibitory concentration (IC50) amounted to 84.1 nM. Next, `COc1ccc2c(c1OCc1ccccc1)C[C@@H](C(=O)O)N(C(=O)[C@H](OC1CCCC1)c1ccc(F)cc1)C2` [Compound 54]: > 3000 nM; `COc1ccc2c(c1OCc1ccccc1)C[C@@H](C(=O)O)N(C(=O)[C@@H](OC1CC3CC3C1)c1ccccc1)C2` (some centres unmarked) [Compound 55]: 4.4 nM; `COc1ccc2c(c1OCc1ccccc1)C[C@@H](C(=O)O)N(C(=O)[C@H](OC1CC3CC3C1)c1ccccc1)C2` (some centres unmarked) [Compound 56]: 224 nM.

`COc1ccc2c(c1OCc1ccccc1)C[C@@H](C(=O)O)N(C(=O)[C@H](OC1(C)CCCC1)c1ccccc1)C2` [Compound 58] yielded an IC50 of 155 nM. As for `COc1ccc2c(c1OCc1ccccc1)C[C@@H](C(=O)O)N(C(=O)[C@H](O[C@H]1CC[C@@H](O)CC1)c1ccccc1)C2` [Compound 64], the IC50 was 375 nM. Regarding `COc1ccc2c(c1OCc1ccccc1)C[C@@H](C(=O)O)N(C(=O)[C@@H](O[C@H]1CC[C@H](O)CC1)c1ccccc1)C2` [Compound 65], the IC50 came out at 157 nM. This IC50 is about 2.4-fold lower than that of the molecule before. To `COc1ccc2c(c1OCc1ccccc1)C[C@@H](C(=O)O)N(C(=O)[C@H](O[C@H]1CC[C@H](O)CC1)c1ccccc1)C2` [Compound 66] belongs > 3000 nM; to `Cc1ccc2c(c1OCc1ccccc1)C[C@@H](C(=O)O)N(C(=O)[C@@H](OC1CC(F)(F)C1)c1ccccc1)C2` [Compound 67], 1.6 nM.

As for `Cc1ccc2c(c1OCc1ccccc1)C[C@@H](C(=O)O)N(C(=O)[C@H](OC1CC(F)(F)C1)c1ccccc1)C2` [Compound 68], the IC50 stood at 67 nM. With `Cc1ccc2c(c1OCc1ccccc1)C[C@@H](C(=O)O)N(C(=O)[C@@H](OC1(C)CCCC1)c1ccccc1)C2` [Compound 69], the IC50 stood at 1.7 nM. For the molecule `Cc1ccc2c(c1OCc1ccccc1)C[C@@H](C(=O)O)N(C(=O)[C@H](OC1(C)CCCC1)c1ccccc1)C2` [Compound 70], the 50% inhibitory concentration (IC50) is 65.6 nM. For `Cc1ccc2c(c1OCc1ccccc1)C[C@@H](C(=O)O)N(C(=O)[C@@H](O[C@H]1CC[C@@H](O)CC1)c1ccccc1)C2` [Compound 71], the IC50 is 1090 nM. On to `Cc1ccc2c(c1OCc1ccccc1)C[C@@H](C(=O)O)N(C(=O)[C@H](O[C@H]1CC[C@@H](O)CC1)c1ccccc1)C2` [Compound 72], for which the IC50 turned out to be 5.3 nM. Against the preceding molecule, the IC50 is about 210-fold lower. To `O=C(O)[C@@H]1Cc2c(ccc(Cl)c2OCc2ccccc2)CN1C(=O)[C@@H](OC1CC(F)(F)C1)c1ccccc1` [Compound 73] belongs 3.7 nM; to `O=C(O)[C@@H]1Cc2c(ccc(Cl)c2OCc2ccccc2)CN1C(=O)[C@H](OC1CC(F)(F)C1)c1ccccc1` [Compound 74], 129 nM. Next, `CC1(O[C@H](C(=O)N2Cc3ccc(Cl)c(OCc4ccccc4)c3C[C@H]2C(=O)O)c2ccccc2)CCCC1` [Compound 75]: 3.9 nM; `CC1(O[C@@H](C(=O)N2Cc3ccc(Cl)c(OCc4ccccc4)c3C[C@H]2C(=O)O)c2ccccc2)CCCC1` [Compound 76]: 72.7 nM.

As for `O=C(O)[C@@H]1Cc2c(ccc(Cl)c2OCc2ccccc2)CN1C(=O)[C@@H](O[C@H]1CC[C@@H](O)CC1)c1ccccc1` [Compound 77], the IC50 came to 881 nM.

With `O=C(O)[C@@H]1Cc2c(ccc(Cl)c2OCc2ccccc2)CN1C(=O)[C@H](O[C@H]1CC[C@@H](O)CC1)c1ccccc1` [Compound 78], the half-maximal inhibitory concentration (IC50) was 7.4 nM. Next, `CC1(O[C@H](C(=O)N2Cc3cccc(OCc4ccccc4)c3C[C@H]2C(=O)O)c2ccccc2)CCCC1` [Compound 79]: 5.8 nM; `CC1(O[C@@H](C(=O)N2Cc3cccc(OCc4ccccc4)c3C[C@H]2C(=O)O)c2ccccc2)CCCC1` [Compound 80]: 323 nM. Regarding `O=C(O)[C@@H]1Cc2c(cccc2OCc2ccccc2)CN1C(=O)[C@H](O[C@H]1CC[C@@H](O)CC1)c1ccccc1` [Compound 82], the IC50 worked out at 20.8 nM. Next, `O=C(O)[C@@H]1Cc2c(cccc2OCc2ccccc2)CN1C(=O)[C@@H](OC1CC(F)(F)C1)c1ccccc1` [Compound 83]: 3.2 nM; `O=C(O)[C@@H]1Cc2c(cccc2OCc2ccccc2)CN1C(=O)[C@H](OC1CC(F)(F)C1)c1ccccc1` [Compound 84]: 481 nM; `O=C(O)[C@@H]1Cc2c(cccc2OCc2ccccc2)CN1C(=O)[C@@H](O[C@H]1C[C@@H](O)C1)c1ccccc1` [Compound 85]: 83.5 nM. For the molecule `O=C(O)[C@@H]1Cc2c(cccc2OCc2ccccc2)CN1C(=O)[C@H](O[C@H]1C[C@@H](O)C1)c1ccccc1` [Compound 86], the 50% inhibitory concentration (IC50) was found to be 879 nM. The molecule `O=C(O)[C@H]1Cc2c(ccc(Cl)c2OCc2ccccc2)CN1C(=O)[C@@H](OC1CCCC1)c1ccccc1` [Compound 108] returned an IC50 of 234 nM. Next, `N#Cc1ccc2c(c1OCc1ccccc1)C[C@@H](C(=O)O)N(C(=O)[C@@H](OC1CCCC1)c1ccccc1)C2` [Compound 109]: 1050 nM; `N#Cc1ccc2c(c1OCc1ccccc1)C[C@H](C(=O)O)N(C(=O)[C@@H](OC1CCCC1)c1ccccc1)C2` [Compound 110]: 552 nM; `N#Cc1ccc2c(c1OCc1ccccc1)C[C@H](C(=O)O)N(C(=O)[C@H](OC1CCCC1)c1ccccc1)C2` [Compound 112]: 116 nM. To `COc1ccc2c(c1OCc1ccccc1)C[C@@](C)(C(=O)O)N(C(=O)[C@@H](OC1CCCC1)c1ccccc1)C2` [Compound 113] belongs > 3000 nM; to `COc1ccc2c(c1OCc1ccccc1)C[C@](C)(C(=O)O)N(C(=O)[C@H](OC1CCCC1)c1ccccc1)C2` [Compound 114], 412 nM; to `COc1ccc2c(c1OCc1ccccc1)C[C@@](C)(C(=O)O)N(C(=O)[C@H](OC1CCCC1)c1ccccc1)C2` [Compound 115], 115 nM.

Molecule `COc1ccc2c(c1OCc1cccs1)C[C@@H](C(=O)O)N(C(=O)[C@@H](OC1CCCC1)c1ccccc1)C2` [Compound 117] yielded an IC50 of 9.1 nM. As for `O=C(O)[C@@H]1Cc2c(ccc(O)c2OCc2ccccc2)CN1C(=O)[C@@H](OC1CCCC1)c1ccccc1` [Compound 118], the IC50 was 30.4 nM.
